Assay [1] deals with M. abscessus subsp. bolletii NTM 0003. The assay can be described thus: MIC of CF NTM clinical isolates. In kind it is cell-based. Conditions: for CLSI clinical breakpoint category: NTM 0003; for MIC: Mycobacteroides abscessus, M. abscessus subsp. bolletii NTM 0003, read-out: MIC.
The subject of a further assay is MABSC biofilm. The experiment in a line: 2D MBEC checkerboard assay, antibiotic potentiation in biofilm. In kind it is cell-based, Mycobacterium abscessus complex. The conditions noted are these: for Fold Change: MBEC alone vs MBEC with PAAG 128 μg/mL; for MBEC: antibiotic alone; for MBEC with PAAG: antibiotic with PAAG at half of its MBEC (128 μg/mL). Here is the method: (§1) PAAG synergy with conventional antibiotics was determined by 2D checkerboard analysis. PAAG's antimicrobial activity and antibiotic potentiation in a biofilm were determined by minimum biofilm eradication concentration (MBEC) and 2D MBEC checkerboard assays to determine antibiotic potentiation with PAAG within a biofilm.

For another assay, the system named is MABSC NTM 0082. The assay can be described thus: 2D checkerboard analysis, antibiotic MIC with PAAG. The class given is cell-based, Mycobacterium abscessus complex. Conditions: for Fold Change: MIC alone vs MIC with PAAG 128 μg/mL; for MIC: Mycobacteroides abscessus. Here is the method: as §1
In assay [2] the test system is M. abscessus subsp. abscessus NTM 0082. The experiment in a line: MIC of CF NTM clinical isolates. The class given is cell-based. The conditions noted are these: for CLSI clinical breakpoint category: NTM 0082; for MIC: Mycobacteroides abscessus, M. abscessus subsp. abscessus NTM 0082, read-out: MIC.
Assay [3] has as its system M. avium complex NTM 0813. The experiment in a line: MIC of CF NTM clinical isolates. In kind it is cell-based. The conditions noted are these: for CLSI clinical breakpoint category: NTM 0813; for MIC: Mycobacterium avium, M. avium complex NTM 0813, read-out: MIC.
A further assay has as its system M. gordonae NTM 0274. The assay can be described thus: MIC of CF NTM clinical isolates. The class given is cell-based. Conditions: for CLSI clinical breakpoint category: NTM 0274; for MIC: Mycobacterium gordonae, NTM0274, M. gordonae NTM 0274, read-out: MIC.
For assay [4], the system named is M. abscessus subsp. abscessus NTM 0079. The assay can be described thus: MIC of CF NTM clinical isolates. The class given is cell-based. Conditions: for CLSI clinical breakpoint category: NTM 0079; for MIC: Mycobacteroides abscessus, M. abscessus subsp. abscessus NTM 0079, read-out: MIC.
The subject of assay [5] is M. avium complex NTM 0260. The experiment in a line: MIC of CF NTM clinical isolates. The class given is cell-based. Conditions: for CLSI clinical breakpoint category: NTM 0260; for MIC: Mycobacterium avium, M. avium complex NTM 0260, read-out: MIC.
A further assay has as its system MAC biofilm. The assay can be described thus: 2D MBEC checkerboard assay, antibiotic potentiation in biofilm. The class given is cell-based, Mycobacterium avium complex. Conditions: for Fold Change: MBEC alone vs MBEC with PAAG 8 μg/mL; for MBEC: antibiotic alone; for MBEC with PAAG: antibiotic with PAAG at half of its MBEC (8 μg/mL). Here is the method: as §1
In addition, PAAG potentiates antibiotics against NTM in biofilms as measured with minimum biofilm eradication concentration (MBEC) (Table 3).

The next assay concerns MAC NTM 0260. The experiment in a line: 2D checkerboard analysis, antibiotic MIC with PAAG. The class given is cell-based, Mycobacterium avium complex. Conditions: for Fold Change: MIC alone vs MIC with PAAG 8 μg/mL; for MIC: Mycobacterium avium. Here is the method: as §1
[6] abbreviates: antibiotic alone, read-out: MIC.
Setting [7] is: antibiotic with PAAG at half of its MIC (128 μg/mL), read-out: MIC with PAAG.
Where [8] appears, read: antibiotic alone, MAC NTM 0260, read-out: MIC.

Where two headings read alike, the source gives them in different places. A value given as a limit tells only on which side of the number the result lay.

One may read the MIC as the least concentration at which growth counts as inhibited. In the case of `NCC[C@H](O)C(=O)N[C@@H]1C[C@H](N)[C@@H](O[C@H]2O[C@H](CN)[C@@H](O)[C@H](O)[C@H]2O)[C@H](O)[C@H]1O[C@H]1O[C@H](CO)[C@@H](O)[C@H](N)[C@H]1O` [Amikacin], the “CLSI clinical breakpoint category” value in assay [1] (Amikacin breakpoints) is “(S) (≤16 μg/mL (S))”; in assay [2] (Amikacin breakpoints), “(R) (≥64 μg/mL (R) for Amikacin)”; in assay [3] (Amikacin breakpoints), “(S) (≤16 μg/mL (S))”; in the assay with M. gordonae NTM 0274 (Amikacin breakpoints) it was “(S) (≤16 μg/mL (S))”; in assay [4] (Amikacin breakpoints), “(R) (≥64 μg/mL (R) for Amikacin)”; in assay [5] (Amikacin breakpoints) it was “(S) (≤16 μg/mL (S))”. For the same compound, the MIC was 4 µg/mL in [1]; 32 µg/mL in the assay on MABSC NTM 0082 (setting [6]); 0.06 µg/mL in the assay with MABSC NTM 0082 (setting [7]); 8 µg/mL in assay [2]; 2 µg/mL in [3]; below 0.0625 µg/mL with M. gordonae NTM 0274. Also, the MIC in assay [4] is 8 µg/mL; in assay [5] it was 2 µg/mL. The “Fold Change” value in the assay with MABSC biofilm was above 512; in the assay with MABSC NTM 0082, 533. Further, the MBEC with MABSC biofilm was above 1024 µg/mL. Moreover, in the assay on MABSC biofilm, the “MBEC with PAAG” value was 2 µg/mL.

For `CC[C@H]1OC(=O)[C@H](C)[C@@H](O[C@H]2C[C@@](C)(OC)[C@@H](O)[C@H](C)O2)[C@H](C)[C@@H](O[C@@H]2O[C@H](C)C[C@H](N(C)C)[C@H]2O)[C@](C)(O)C[C@@H](C)CN(C)[C@H](C)[C@@H](O)[C@]1(C)O` [Azithromycin], the “CLSI clinical breakpoint category” value in assay [1] (Azithromycin breakpoints) is recorded as “(R) (≥8 μg/mL (R))”; in [2] (Azithromycin breakpoints), “(R) (≥8 μg/mL (R))”; in assay [3] (Azithromycin breakpoints) it was “(I) (4 μg/mL (I))”; with M. gordonae NTM 0274 (Azithromycin breakpoints), “(I) (4 μg/mL (I))”; in assay [4] (Azithromycin breakpoints), “(R) (≥8 μg/mL (R))”; in assay [5] (Azithromycin breakpoints) it was “(I) (4 μg/mL (I))”. For the same compound, the MIC in [1] was 32 µg/mL; in assay [2], 32 µg/mL; in assay [3] it was 2 µg/mL; with M. gordonae NTM 0274, 2 µg/mL; in [4], 32 µg/mL; in assay [5], 2 µg/mL. Moreover, the MIC in the assay with MAC NTM 0260 (setting [8]) turned out to be 2 µg/mL; with MAC NTM 0260 (read-out: MIC with PAAG), 0.5 µg/mL. The “Fold Change” value worked out at 8 with MAC biofilm and 4 in the assay with MAC NTM 0260 (MAC NTM 0260). Besides, in the assay on MAC biofilm, the MBEC amounted to 8 µg/mL. The “MBEC with PAAG” value in the assay on MAC biofilm was 1 µg/mL.

On to `O=C(O)c1cn(C2CC2)c2cc(N3CCNCC3)c(F)cc2c1=O` [Ciprofloxacin], for which the MBEC in the assay on MABSC biofilm was above 1024 µg/mL.

As for `CC[C@@H](CO)NCCN[C@@H](CC)CO` [Ethambutol], the “CLSI clinical breakpoint category” value (in assay [1] (Ethambutol breakpoints); in assay [2] (Ethambutol breakpoints); in [3] (Ethambutol breakpoints); with M. gordonae NTM 0274 (Ethambutol breakpoints); in [4] (Ethambutol breakpoints); in assay [5] (Ethambutol breakpoints)) was “R (≥2 μg/mL (R) for Ethambutol)” in each case. Besides, the MIC is 8 µg/mL in [1]; 32 µg/mL in the assay on MABSC NTM 0082 (setting [6]); 0.25 µg/mL with MABSC NTM 0082 (setting [7]); 32 µg/mL in [2]; 2 µg/mL in assay [3]; 2 µg/mL in the assay with M. gordonae NTM 0274. The minimum inhibitory concentration (MIC) in assay [4] is 32 µg/mL; in assay [5] it was 2 µg/mL; in the assay on MAC NTM 0260 (setting [8]), 2 µg/mL; in the assay with MAC NTM 0260 (read-out: MIC with PAAG), 1 µg/mL. Further, the “Fold Change” value is reported as above 512 with MABSC biofilm, 128 with MABSC NTM 0082, above 32 in the assay on MAC biofilm and 2 in the assay with MAC NTM 0260 (MAC NTM 0260). The MBEC with MABSC biofilm is above 1024 µg/mL; in the assay with MAC biofilm it was above 8 µg/mL. For the same compound, the “MBEC with PAAG” value with MABSC biofilm is 2 µg/mL; in the assay on MAC biofilm, below 0.25 µg/mL.

With `CO[C@H]1/C=C/O[C@@]2(C)Oc3c(C)c(O)c4c(O)c(c(/C=N/N5CCN(C)CC5)c(O)c4c3C2=O)NC(=O)/C(C)=C\C=C\[C@H](C)[C@H](O)[C@@H](C)[C@@H](O)[C@@H](C)[C@H](OC(C)=O)[C@@H]1C` [Rifampicin], the minimal inhibitory concentration (MIC) in assay [1] is 8 µg/mL; in the assay with MABSC NTM 0082 (setting [6]), 2 µg/mL; in the assay on MABSC NTM 0082 (setting [7]) it was 0.06 µg/mL; in assay [2] it was 2 µg/mL; in assay [3] it was 4 µg/mL; in the assay with M. gordonae NTM 0274, 2 µg/mL. Moreover, the MIC in assay [4] was 2 µg/mL; in [5], 4 µg/mL; in the assay with MAC NTM 0260 (setting [8]) it was 4 µg/mL; with MAC NTM 0260 (read-out: MIC with PAAG), 1 µg/mL. Moreover, the “CLSI clinical breakpoint category” value (in assay [1] (Rifampicin breakpoints); in assay [2] (Rifampicin breakpoints); in assay [3] (Rifampicin breakpoints); with M. gordonae NTM 0274 (Rifampicin breakpoints); in assay [4] (Rifampicin breakpoints); in assay [5] (Rifampicin breakpoints)) was “R (≥1 μg/mL (R) for Rifampicin)” throughout. In addition, the “Fold Change” value is above 512 with MABSC biofilm, 21 in the assay with MABSC NTM 0082, above 32 in the assay with MAC biofilm and 4 in the assay with MAC NTM 0260 (MAC NTM 0260). Further, the MBEC is above 1024 µg/mL in the assay with MABSC biofilm and 8 µg/mL in the assay with MAC biofilm. The figures for the “MBEC with PAAG” value in the assay on MABSC biofilm and in the assay on MAC biofilm were 2 µg/mL and below 0.25 µg/mL, respectively.
